According to US20250099369A1, “TOPICAL DELIVERY COMPOSITIONS COMPRISING NON-STEROIDAL ANTI-INFLAMMATORY DRUGS” (Andros Pharmaceuticals Co., LTD., priority 2023, published 2025):

Experiment: physchem
Format: physicochemical
Details: 25 °C, aqueous buffer, thermodynamic from solid, Diclofenac Solubility
Experimental: In the aqueous solution containing 1% boric acid, add SPC (0%, 1%, 3%, 5%, 8%, 10%, 13%, 15%, 18%, 20%) and urea (0%, 5%, 10%, 20%, 30%, 40%, 50%) and stir until complete dissolution. A total of 70 sample solutions with different SPC and urea concentrations were obtained.
An excess of diclofenac sodium was added to each set of sample solutions and stirred overnight at 25° C. The sample solution was centrifuged at 12,000 rpm for 5 minutes, and a portion of the supernatant was diluted with appropriate diluent and analyzed by HPLC, to determine the solubility of diclofenac sodium in aqueous solutions containing different concentrations of SPC and urea. The results are presented in Table1.

Question: With O=C(O)Cc1ccccc1Nc1c(Cl)cccc1Cl [diclofenac sodium] as the compound, how does the solubility read?
Answer: 19.7 mg/mL
